“And” between values parts separate entries of the source, which are not always exact repeats. Identical values can stand only once. “Also recorded” adds a separate entry of the source. Like-named read-outs stand apart in the source and are kept apart here.

One may read the IC50 as the concentration that inhibits the measured activity by half.

Data set [1] deals with recombinant human S1P1 (Homo sapiens (Human), UniProt P21453). Briefly: [32P]S1P competitive binding assay on cell membranes.
Protocol: (§1) Competitive binding was performed for 60 min at room temperature and terminated by collecting the membranes onto 96-well glass fiber (GF/B) filtration plates (Millipore, Billerica, Mass.). Each filter was washed with 200 μL of assay buffer for five times. The filter bound radionuclide was measured by a Beckman LS3801 scintillation counter using Cherenkov counting. The reported IC50 values were calculated using the 4 parameter equation, least-square non-linear regression curve-fit, with GraphPad Prism software (GraphPad Software, Inc). Each assay was repeated at least three times with duplicate wells for each compound; the reported values (mean±SD, nM) are calculated from the average of all assays.
For data set [2], the target named is S1P2 (Homo sapiens (Human), UniProt O95136). Described as above. As to conditions: competition against [32P]S1P, mean ± SD.
Chain of S1P2 (O95136 whole entry): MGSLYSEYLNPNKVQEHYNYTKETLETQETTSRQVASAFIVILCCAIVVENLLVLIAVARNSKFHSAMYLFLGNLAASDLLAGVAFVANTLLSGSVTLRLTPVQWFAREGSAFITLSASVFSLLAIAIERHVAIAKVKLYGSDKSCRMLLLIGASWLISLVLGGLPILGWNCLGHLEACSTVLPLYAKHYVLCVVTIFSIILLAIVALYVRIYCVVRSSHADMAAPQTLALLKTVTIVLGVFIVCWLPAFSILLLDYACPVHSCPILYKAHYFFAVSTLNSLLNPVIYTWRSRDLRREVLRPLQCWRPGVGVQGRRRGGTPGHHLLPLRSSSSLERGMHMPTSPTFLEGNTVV
Protocol: as §1
For data set [3], the target named is S1P3 (Homo sapiens (Human), UniProt Q99500). Described as above. The conditions noted are these: competition against [32P]S1P, mean ± SD.
Chain of S1P3 (Q99500 whole entry): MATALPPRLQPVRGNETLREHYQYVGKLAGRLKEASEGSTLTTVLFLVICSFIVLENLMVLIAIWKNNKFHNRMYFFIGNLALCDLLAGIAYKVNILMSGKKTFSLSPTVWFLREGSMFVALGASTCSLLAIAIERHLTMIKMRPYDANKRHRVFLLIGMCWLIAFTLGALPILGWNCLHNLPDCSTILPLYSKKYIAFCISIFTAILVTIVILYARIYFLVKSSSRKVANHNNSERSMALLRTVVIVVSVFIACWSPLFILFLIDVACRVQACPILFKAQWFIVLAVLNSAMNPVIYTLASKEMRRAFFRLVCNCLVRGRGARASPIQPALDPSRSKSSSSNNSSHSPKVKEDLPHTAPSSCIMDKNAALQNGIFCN
Protocol: as §1
Data set [4] has as its target S1P4 (Homo sapiens (Human), UniProt O95977). The description is as above.
Protocol: as §1
In data set [5] the target is S1P5 (Homo sapiens (Human), UniProt Q9H228). The description is as above.
Chain of S1P5 (Q9H228 whole entry): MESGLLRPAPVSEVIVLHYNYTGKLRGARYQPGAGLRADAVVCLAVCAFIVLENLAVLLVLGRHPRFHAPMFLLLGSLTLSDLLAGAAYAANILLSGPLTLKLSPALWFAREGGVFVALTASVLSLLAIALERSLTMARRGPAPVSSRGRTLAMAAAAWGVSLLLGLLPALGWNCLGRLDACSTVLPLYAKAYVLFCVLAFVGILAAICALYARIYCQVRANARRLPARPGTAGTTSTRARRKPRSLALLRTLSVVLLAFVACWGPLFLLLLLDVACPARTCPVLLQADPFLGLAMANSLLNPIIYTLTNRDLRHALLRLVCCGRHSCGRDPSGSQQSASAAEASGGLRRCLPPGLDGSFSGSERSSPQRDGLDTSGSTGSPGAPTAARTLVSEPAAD
Protocol: as §1
Data set [6] concerns the target S1P2-S1P5. Briefly: [32P]S1P competitive binding assay, other subtypes reported together. Further details: species or system human. As to conditions: one bound for all four subtypes.
Protocol: as §1
Data set [7] has as its target S1P1 (Rattus norvegicus (Rat), UniProt P48303). Put plainly: MicroPET and tracer kinetic modeling in EAE rat model, lumbar spinal cord. The class given is in vivo. The conditions noted are these: for 2TCM Vd / LoganAIF Vd: lumbar spinal cord, n = 3-4.
Protocol: MicroPET scans were performed using an Inveon PET/CT system (Siemens Inc., Knoxville, Tenn.). […] Each rat was secured to a custom-designed acrylic bed equipped with a nosecone for gas anesthesia. PET/CT scans were conducted under 1.5-2% isoflurane anesthesia with the rat placed in transaxial position and centered with the T13 vertebral spine in the field of view. […] A list mode protocol was used with 60-min dynamic data acquisition.
PET image data was processed using filter back projection algorithm with attenuation and scatter corrections. The data were reconstructed per time frame employing an iterative reconstructional algorithm (three-dimensional ordered subset expectation maximization (3D-OSEM), maximum a posteriori (MAP)) and corrected for decay, random coincidences, scatter, and attenuation. […] Image data was analyzed using Inveon Research Workstation software IRW 4.2 (Siemens Inc., Knoxville, Tenn.). The regions of interest (ROI), the lumbar spinal cord and bilateral common carotid arteries, were drawn over the co-registered PET/CT images using the standard protocol published previously. Time-activity curves (TACs) were obtained and were expressed as % ID/g. A two-tailed t-test was used for the comparison of the tracer uptake in EAE rat lumbar spinal cord versus sham. A P value less than 0.05 was considered statistically significant. Time-activity curves were further analyzed using 2-tissue-compartment model (2TCM), as well as Logan graphical analysis, using the ROI over bilateral common carotid arteries for image-based arterial blood input function.
Data set [8] can be described thus: Nonhuman primate (NHP) brain microPET scan. Type of data set: in vivo, macaques. As to conditions: normal NHP. On the procedure: To examine if newly-synthesized S1P1 radioligands could cross the BBB of NHPs, two male macaques (9-10 kg) were studied with a microPET Focus 220 scanner (Concorde/CTI/Siemens Microsystems, Knoxville, Tenn.). The welfare of the animals conformed to the requirements of National Institutes of Health (NIH). This work was conducted at the Nonhuman Primate Facility of Washington University in St. Louis with approval from the IACUC. Animals were maintained in facilities with 12-hour dark and light cycles, given access to food and water ad libitum and provided a variety of psychologically enriching tasks to prevent inappropriate deprivation. Animals were scanned under anesthesia (induced with ketamine and glycopyrrolate and maintained with inhalation isoflurane). Core temperature was kept about 37° C. with a heated water blanket. The head was secured in a head holder with the brain in the center of the field of view.
PET scans were collected from O-120 min with the following time frames: 3×1 min, 4×2 min, 3×3 min and 20×5 min. Emission data were corrected for dead time, scatter and attenuation and then reconstructed to a final resolution of 2.0 mm full-width half maximum in all 3 dimensions at the center of the field of view. PET and MRI images were co-registered using automated image registration program (AIR). For quantitative analyses, three-dimensional ROI (the global brain) was identified on the MRI and transformed to the reconstructed PET images to obtain time-activity curves. Activity measures were standardized to body weight and the dose of radioactivity injected to yield standardized uptake value (SUV).

[9] abbreviates: competition against [32P]S1P, membranes with recombinant human S1P1, mean ± SD, read-out: S1P1 IC50 ± SD.
The mark [10] stands for this setting: competition against [32P]S1P, mean ± SD.

Chain of S1P1 (P48303 whole entry): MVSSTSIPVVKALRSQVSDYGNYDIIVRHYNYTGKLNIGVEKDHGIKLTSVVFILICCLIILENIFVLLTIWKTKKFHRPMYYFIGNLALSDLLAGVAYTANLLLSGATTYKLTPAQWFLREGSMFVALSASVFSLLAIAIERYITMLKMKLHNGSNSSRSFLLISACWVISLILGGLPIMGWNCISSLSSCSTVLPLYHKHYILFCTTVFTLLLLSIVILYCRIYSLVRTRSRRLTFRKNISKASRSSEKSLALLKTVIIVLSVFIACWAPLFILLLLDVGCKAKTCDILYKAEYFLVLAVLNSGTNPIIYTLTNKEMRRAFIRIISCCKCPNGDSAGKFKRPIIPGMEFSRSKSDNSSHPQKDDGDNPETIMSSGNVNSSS
Chain of recombinant human S1P1 (P21453 whole entry): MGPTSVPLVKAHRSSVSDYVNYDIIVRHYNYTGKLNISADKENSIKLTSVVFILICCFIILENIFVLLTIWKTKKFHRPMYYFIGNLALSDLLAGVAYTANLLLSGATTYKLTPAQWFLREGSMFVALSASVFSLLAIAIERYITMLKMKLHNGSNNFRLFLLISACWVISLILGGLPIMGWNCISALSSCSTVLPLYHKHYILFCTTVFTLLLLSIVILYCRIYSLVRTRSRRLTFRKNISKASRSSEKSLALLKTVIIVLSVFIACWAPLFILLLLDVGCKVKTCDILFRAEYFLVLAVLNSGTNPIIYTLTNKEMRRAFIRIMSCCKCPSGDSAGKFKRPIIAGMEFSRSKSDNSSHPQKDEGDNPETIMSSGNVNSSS
Chain of S1P4 (O95977 whole entry): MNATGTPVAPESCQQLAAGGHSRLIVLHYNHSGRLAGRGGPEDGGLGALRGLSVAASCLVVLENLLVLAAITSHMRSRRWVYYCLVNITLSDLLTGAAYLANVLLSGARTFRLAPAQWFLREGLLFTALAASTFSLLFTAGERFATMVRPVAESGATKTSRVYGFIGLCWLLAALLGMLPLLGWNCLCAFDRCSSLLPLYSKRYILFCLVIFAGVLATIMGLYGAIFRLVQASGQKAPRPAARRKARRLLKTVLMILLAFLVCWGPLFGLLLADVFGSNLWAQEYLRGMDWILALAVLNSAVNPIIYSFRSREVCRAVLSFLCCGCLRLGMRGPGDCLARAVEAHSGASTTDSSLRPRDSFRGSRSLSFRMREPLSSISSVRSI

Turning to `OCCOCCOCc1ccc(-c2noc(-c3ccc(OCCF)c(C(F)(F)F)c3)n2)cc1` [Compound 12b], the IC50 was 0.0154 ± 0.0033 µM in data set [1] (setting [9]); < 0.02 µM in data set [1] (read-out: S1P1 IC50 ± SD); > 1 µM in data set [2]; > 1 µM in data set [3]; > 1 µM in data set [4]; > 1 µM in data set [5]. Moreover, the IC50 in data set [6] is > 1 µM. The “Fold decrease of S1P1 binding potency compared to 8c” value in data set [1] (vs 8c) was “approximately 2 fold”.

Regarding `OCCOCCOCc1ccc(-c2noc(-c3ccc(OCC[18F])c(C(F)(F)F)c3)n2)cc1` [[^18F]12b], in data set [7] (EAE and sham rats), the “Visualization of rat lumbar spinal cord by microPET” value was “clear visualization of lumbar spinal cord”. In data set [7] (EAE rats), the “2TCM Vd” value is 2.30 ± 0.13 mL/g and the “LoganAIF Vd” value turned out to be 2.27 ± 0.18 mL/g. Further, the “Tracer uptake in lumbar spinal cord, EAE” value in data set [7] (EAE rats, summed SUV values 10-60 min post injection, n=3-4) is given as 1.20±0.04 SUV. Besides, in data set [7] (Sham rats), the “2TCM Vd” value is given as 1.76 ± 0.19 mL/g and the “LoganAIF Vd” value worked out at 1.75 ± 0.21 mL/g. In addition, in data set [7] (microPET, 10-60 min post injection), the “Increase of tracer uptake in EAE rat lumbar spinal cord compared with shams” value was 22.9%. Besides, the “Averaged tracer uptake in sham rat spinal cord” value in data set [7] (sham rats, 10-60 min post injection) is 1.0-1.1. In addition, in data set [7] (sham rats, summed SUV values 10-60 min post injection, n=3-4), the “Tracer uptake in lumbar spinal cord, sham” value amounted to 0.98±0.09 SUV. The “Max SUV value in total brain” value in data set [8] (microPET) is ~2.4 SUV. In addition, the “Blood-brain barrier crossing, NHP brain” value in data set [8] (microPET, listed as 18F-TZ4881) is reported as “able to cross the blood brain barrier; also recorded: able to cross the BBB”. In addition, the “Time to max SUV in total brain” value in data set [8] (post injection) was ~5 min.

Consider `OCCOCc1ccc(-c2noc(-c3ccc(OCCF)c(C(F)(F)F)c3)n2)cc1` [Compound 12a], for which the half-maximal inhibitory concentration (IC50) in data set [2], in data set [3], in data set [4], in data set [5] and in data set [6] was > 1 µM in each case.

With `CCCCCCCCCCCCC/C=C/[C@@H](O)[C@@H](N)COP(=O)(O)O` [Compound S1P, Sphingosine-1-phosphate, reference compound], the IC50 stood at 0.0014 ± 0.0003 µM in data set [1] (setting [9]), 0.0004 ± 0.0002 µM in data set [3] and 0.151 ± 0.082 µM in data set [4] (setting [10]).

For the molecule “3-((4-(5-(4-(2-Fluoroethoxy)-3-(trifluoromethyl)phenyl)-1,2,4-oxadiazol-3-yl)benzypamino)propanoic acid [Compound 26b]”, the IC50 in data set [1] (setting [9]) was 0.0063 ± 0.0013 µM; in data set [2], > 1 µM; in data set [3], > 1 µM; in data set [4] (setting [10]) it was > 1 µM; in data set [5] (setting [10]), > 1 µM; in data set [6] it was > 1 µM.

Regarding `NNC(=O)c1ccc(-c2noc(-c3ccc(OCCF)c(C(F)(F)F)c3)n2)cc1` [Compound 20c, 4-(5-(4-(2-Fluoroethoxy)-3-(trifluoromethyl)phenyl)-1,2,4-oxadiazol-3-yl)benzohydrazide], the half-inhibitory concentration (IC50) in data set [1] (competition against [32P]S1P, membranes with recombinant human S1P1, mean ± SD, listed as TZ-43-153, read-out: S1P1 IC50 ± SD) was 0.0147 ± 0.00167 µM; in data set [1] (read-out: S1P1 IC50 ± SD), < 0.02 µM; in data set [2], > 1 µM; in data set [3] it was > 1 µM; in data set [4], > 1 µM; in data set [5], > 1 µM. For the same molecule, the IC50 in data set [6] was > 1 µM. In data set [1] (vs 19b), the “Fold decreased S1P1 IC50 compared to 19b” value came to 5 fold.

For the molecule `OCC(O)COCc1ccc(-c2noc(-c3ccc(OCCF)c(C(F)(F)F)c3)n2)cc1` (centres unmarked) [Compound 8h], the “Fold increase of S1P1 binding potency compared to 8g” value in data set [1] (vs 8g) is listed as 10 fold. For the same molecule, the IC50 in data set [2], in data set [3], in data set [4] (setting [10]), in data set [5] (setting [10]) and in data set [6] was > 1 µM in each case.

As for `OCc1ccc(-c2noc(-c3ccc(OCCF)c(C(F)(F)F)c3)n2)cc1` [Compound 8c, (4-(5-(4-(2-Fluoroethoxy)-3-(trifluoromethyl)phenyl)-1,2,4-oxadiazol-3-yl)phenyl)methanol], the IC50 in data set [2], in data set [3], in data set [4], in data set [5] and in data set [6] was > 1 µM throughout.

Turning to `O=C(O)C1CCN(Cc2ccc(-c3noc(-c4ccc(OCCF)c(C(F)(F)F)c4)n3)cc2)CC1` [TZ-35-124], the IC50 in data set [1] (setting [9]) was 0.0454 ± 0.0027 µM; in data set [2], > 1 µM; in data set [3], > 1 µM.

With `NS(=O)(=O)c1ccc(-c2noc(-c3ccc(OCCF)c(C(F)(F)F)c3)n2)cc1` [Compound 19a], the IC50 in data set [1] (competition against [32P]S1P, membranes with recombinant human S1P1, mean ± SD, listed as TZ-43-73, read-out: S1P1 IC50 ± SD) was 0.0132 ± 0.00323 µM; in data set [1] (read-out: S1P1 IC50 ± SD) it was < 0.02 µM; in data set [2], > 1 µM; in data set [3], > 1 µM; in data set [4], > 1 µM; in data set [5], > 1 µM. For the same molecule, the half-inhibitory concentration (IC50) in data set [6] is > 1 µM.

`O=C(O)C1CN(Cc2ccc(-c3noc(-c4ccc(OCCF)c(C(F)(F)F)c4)n3)cc2)C1` [TZ-35-110]: the IC50 in data set [1] (setting [9]) was 0.00263 ± 0.00027 µM; in data set [2], > 1 µM; in data set [3], > 1 µM.

For the molecule `OCc1cn(Cc2ccc(-c3noc(-c4ccc(OCCF)c(C(F)(F)F)c4)n3)cc2)nn1` [Compound 22b, (1-(4-(5-(4-(2-Fluoroethoxy)-3-(trifluoromethyl)phenyl)-1,2,4-oxadiazol-3-yl)benzyl)-1H-1,2,3-triazol-4-yl)met-hanol], the half-maximal inhibitory concentration (IC50) in data set [1] (Table 9, avg, n = 2-3, read-out: S1P1 IC50, second value in parentheses (average) (converted)) is 0.0098 µM; in data set [1] (competition against [32P]S1P, membranes with recombinant human S1P1, mean ± SD, listed as TZ43113, read-out: S1P1 IC50 ± SD), 0.0097 µM and 0.00965 µM; in data set [1] (competition against [32P]S1P, membranes with recombinant human S1P1, mean ± SD, listed as TZ-43-113, read-out: S1P1 IC50 ± SD) it was 0.00965 ± 0.00161 µM; in data set [1] (setting [9]), 0.0097 ± 0.0016 µM; in data set [1] (read-out: S1P1 IC50 ± SD), < 0.02 µM; in data set [2] it was > 1 µM. Moreover, the IC50 in data set [3], in data set [4], in data set [5] and in data set [6] was > 1 µM in each case. The “Fold decreased S1P1 IC50 compared to 22a” value in data set [1] (vs corresponding acid 22a) is given as 35 fold.

The values above are taken from patent publication US10676467B2 (Washington University, priority 2017, dated 2020).
